Assay results published in patent US20100297109A1, “METHODS FOR INHIBITING FASCIN” (Cornell University, priority 2007, published 2010).

Assays:
4T1 cells = experiment: Boyden chamber cell migration assay, serum-induced migration of 4T1 cells; assay type: cell-based, mouse; conditions: FIGS. 1C and 1D
Experimental: Cells. Mouse 4T1 mammary tumor cells and human MDA-MB-231 breast tumor cells were obtained from ATCC and have been described previously (Shan et al. 2005, Yang et al. 2005). 4T1 cells were cultured in RPMI 1640 medium supplemented with 10% FBS. MDA-MB-231 cells were cultured in DMEM supplemented with 10% FBS. Wound-healing assay. The wound-healing assay involves observing whether confluent cells can migrate across a scrape or wound in the cell layer. Cell migration assays were performed as described previously (Yang et al. 2005, Shan et al 2006). Tumor cells were plated in a 24-well plate coated with gelatin in standard media. […] Photographs several random regions of the filter facing the second chamber are taken and the number of cells counted to calculate the average number of cells that had transmigrated.
Boyden Chamber Cell Migration Assay. […] Three randomly selected fields (10× objectives) on the lower side of the insert were photographed, and the migrated cells were counted. The migration was expressed as either the average number of migrated cells in a field or as percentage of migrated cells in positive control. Percentage was calculated with the formula P=100×(M−Mnc)/Mpc, where P is the percentage of migrated cells, M is the number of migrated cells, Mnc is the number of migrated cells in negative controls, and Mpc is the number of migrated cells in positive controls.

[1] = tested on: human colon tumor Lovo cells; experiment: Cell migration assay, Lovo cells; assay type: cell-based
Drosophila fascin = molecular target: T1, Drosophila fascin (Drosophila melanogaster, UniProt Q24524); experiment: Migration of fascin siRNA-treated 4T1 cells rescued with Drosophila fascin; assay type: cell-based; conditions: Drosophila fascin in fascin siRNA-treated 4T1 cells
T1 construct: expressed in transfected cells; host or cells: 4T1 mouse mammary tumor cells treated with fascin siRNAs
T1 sequence (Q24524 1-512): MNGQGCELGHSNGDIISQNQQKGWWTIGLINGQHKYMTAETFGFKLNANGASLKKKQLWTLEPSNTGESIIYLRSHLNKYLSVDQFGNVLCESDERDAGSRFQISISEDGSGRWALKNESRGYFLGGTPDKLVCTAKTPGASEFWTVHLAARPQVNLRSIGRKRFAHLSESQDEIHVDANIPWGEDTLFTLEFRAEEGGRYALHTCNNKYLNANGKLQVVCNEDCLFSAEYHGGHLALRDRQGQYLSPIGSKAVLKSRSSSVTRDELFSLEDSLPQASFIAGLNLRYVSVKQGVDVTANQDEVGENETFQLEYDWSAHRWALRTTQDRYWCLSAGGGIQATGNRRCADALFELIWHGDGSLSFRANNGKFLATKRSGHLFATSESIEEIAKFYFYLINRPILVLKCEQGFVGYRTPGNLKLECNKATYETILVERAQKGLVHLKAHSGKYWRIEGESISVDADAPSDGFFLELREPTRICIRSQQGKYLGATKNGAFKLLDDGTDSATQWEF
Experimental: Boyden Chamber Cell Migration Assay. Cells (5×10^4) suspended in starvation medium were added to the upper chamber of an insert (6.5 mm diameter, 8-micrometer pore size, Becton Dickenson), and the insert was placed in a 24-well dish containing starvation medium with or without 10% FBS (Yang et al. 2005, Shan et al. 2006). When used, inhibitors were added to both chambers. Migration assays were carried out for 4-6 hours and cells were fixed with 3.7% formaldehyde. Cells were stained with crystal violet staining solution, and cells on the upper side of the insert were removed with a cotton swab. Three randomly selected fields (10× objectives) on the lower side of the insert were photographed, and the migrated cells were counted. The migration was expressed as either the average number of migrated cells in a field or as percentage of migrated cells in positive control. Percentage was calculated with the formula P=100×(M−Mnc)/Mpc, where P is the percentage of migrated cells, M is the number of migrated cells, Mnc is the number of migrated cells in negative controls, and Mpc is the number of migrated cells in positive controls.

fascin = fascin (Homo sapiens, UniProt Q16658); experiment: Electron microscopy of fascin-induced F-actin bundles; assay type: biochemical; set-up: GST (N); made in house; host or cells: Escherichia coli BL21
[2] = tested on: human prostate tumor PC-3 cells; experiment: Cell migration assay, PC-3 cells; assay type: cell-based

COC1C=CCCCCC(=O)CCC(C)=CC(C)C1O (centres unmarked) [macroketone, Migrastatin ketone]
IC50 (4T1 cells): 100 nM
inhibition of migration [1]: inhibited the migration
sensitivity of rescued migration (Drosophila fascin): no sensitivity
thickness of actin bundles (fascin): decreased the thickness of the bundles
inhibition of migration [2]: inhibited the migration
